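Following 48 hours of exposure in 96-well plates, responses at five concentrations were used to interpolate endpoints linearly. GI50 marks 50% less growth. The concentration for full growth arrest is given as TGI.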 Where a SMILES comes first, the peptide text is derived from it. The star is where a group is joined. Boc = CC(C)(C)OC(=O)*
Experiments:
Assay in all cases: NCI tumour cell line growth inhibition, 48 h
SF-539 CNS = test system: SF-539 CNS
HT29 colon = test system: HT29 colon
SNB-75 CNS = test system: SNB-75 CNS
MOLT-4 leukemia = test system: MOLT-4 leukemia
RPMI-8226 leukemia = test system: RPMI-8226 leukemia
786-0 renal = test system: 786-0 renal
DU-145 prostate = test system: DU-145 prostate
UACC-257 melanoma = test system: UACC-257 melanoma
RXF 393 renal = test system: RXF 393 renal

Structure (SMILES) | TGI (SF-539 CNS) [µM] | TGI (HT29 colon) [µM] | TGI (SNB-75 CNS) [µM] | TGI (MOLT-4 leukemia) [µM] | TGI (RPMI-8226 leukemia) [µM] | TGI (786-0 renal) [µM] | TGI (DU-145 prostate) [µM] | TGI (UACC-257 melanoma) [µM] | TGI (RXF 393 renal) [µM] | GI50 (SF-539 CNS) [µM] | GI50 (HT29 colon) [µM] | GI50 (MOLT-4 leukemia) [µM] | GI50 (DU-145 prostate) [µM] | GI50 (UACC-257 melanoma) [µM] | GI50 (RPMI-8226 leukemia) [µM] | GI50 (RXF 393 renal) [µM] | GI50 (SNB-75 CNS) [µM]
COc1ccc2c(c1)CCCN1CCc3cc(OC)c(OC)cc3C21 (stereo not given) | > 100 | > 100 | > 100 | > 100 | > 100 | > 100 | > 100 | > 100 | – | – | – | – | – | – | – | – | –
O=S(=O)(O)c1ccc2c(N=Nc3ccccc3Cl)c(O)ccc2c1 | – | > 100 | > 100 | > 100 | > 100 | > 100 | > 100 | > 100 | > 100 | – | – | – | – | – | – | – | –
COC(OC)(c1ccccc1)C(I)I | 17.6 | 34.9 | 26.3 | > 49.8 | > 100 | 21.5 | > 67.7 | 8.73 | 10.4 | – | – | – | – | – | – | – | –
Cc1ccc([N+](=O)[O-])cc1S(=O)(=O)Nc1ccc(C2=NNC(c3cccs3)C2)cc1 (stereo not given) | > 100 | > 100 | > 100 | 92.9 | > 100 | > 100 | > 100 | > 100 | 38.7 | – | – | – | – | – | – | – | –
NC12CC3CC4C1CC1CC2C(C3)C4(N)C1 | – | > 100 | – | > 100 | – | > 100 | > 100 | > 100 | > 100 | – | – | – | – | – | – | – | –
CCOC(=O)c1cc(=O)oc2c1N(C)c1ncccc1N2 | – | – | > 100 | > 100 | > 100 | > 100 | > 100 | > 100 | > 100 | – | – | – | – | – | – | – | –
O=C1CCCCC[C@]12SC[C@H]1CON=C12 | > 100 | > 100 | – | > 100 | > 100 | > 100 | > 100 | > 100 | 77.1 | – | – | – | – | – | – | – | –
CCOC(=O)c1c(C)[nH]c(/C=C2\N=C(c3ccc[nH]3)C=C2OC)c1C | 1.28 | 1.19 | – | 3.09 | – | – | 1.6 | 1.46 | – | 0.0606 | < 0.01 | < 0.012 | 0.0372 | 0.0402 | – | – | –
CC[C@@]1(O)C(=O)OCc2c1cc1n(c2=O)Cc2c-1nc1ccccc1c2/C=N\NC(=O)C(N)Cc1cnc[nH]1 (stereo not given in full) | 0.538 | > 57.3 | 36.5 | 0.243 | 44 | – | > 100 | > 84.3 | 9.59 | – | – | – | – | – | – | – | –
O=C(N/N=C\c1ccc([N+](=O)[O-])cc1)c1ccccc1Nc1ccccc1C(=O)N/N=C/c1ccc([N+](=O)[O-])cc1 | – | > 100 | > 100 | > 100 | > 100 | > 100 | > 100 | > 100 | > 100 | – | – | – | – | – | – | – | –
N#C[C@@]12CCCC(=O)[C@@H]1[C@H]1CCC[C@H]12 | 59.9 | 52.4 | 36 | 55.9 | 32.3 | 29.4 | 28.8 | 36.2 | – | – | – | – | – | – | – | – | –
CC12CC3(O)OC(O1)C1(COC(=O)c4ccccc4)C3CC21OC1OC(CO)C(O)C(O)C1O (stereo not given) | > 100 | > 100 | – | > 100 | > 100 | > 100 | > 100 | > 100 | > 100 | – | – | – | – | – | – | – | –
COc1cc(C(=O)Nc2c3ccccc3nc3ccccc23)cc(OC)c1OC | > 100 | > 100 | – | > 100 | > 100 | > 100 | > 100 | > 100 | > 100 | – | – | – | – | – | – | – | –
CN[C@@H](C)[C@H](OP(=O)(O)OC1[C@@H](O)[C@H](O)C(O)[C@H](O)[C@@H]1O)c1ccccc1 (stereo not given in full) | > 100 | > 100 | > 100 | > 100 | > 100 | > 100 | > 100 | > 100 | – | – | – | – | – | – | – | – | –
COC(=O)c1cc2c3c(cc(O)c2[nH]1)N(C(=O)C1Cc2cc(OC)c(OC)c(OC)c2N1)CC3CCl (stereo not given) | < 0.01 | < 0.01 | – | 0.132 | < 0.01 | – | 0.106 | < 0.01 | – | < 0.01 | < 0.01 | < 0.01 | < 0.01 | < 0.01 | < 0.01 | – | –
CC(C)CC1[C@@H](OCc2ccccc2)COS(=O)(=O)N1Cc1ccccc1 (stereo not given in full) | > 100 | > 100 | > 100 | > 100 | > 100 | > 100 | > 100 | > 100 | – | – | – | – | – | – | – | – | –
O=c1[nH]c(Nc2cccc(Br)c2)nc2nc[nH]c12 | – | > 100 | > 100 | > 100 | > 100 | > 100 | > 100 | > 100 | > 100 | – | – | – | – | – | – | – | –
COc1ccc(CCCC(=O)O)c(C)c1 | – | > 100 | – | > 100 | – | > 100 | 56.6 | > 100 | > 100 | – | – | – | – | – | – | – | –

Structure (SMILES) | TGI (SF-539 CNS) [µM] | TGI (HT29 colon) [µM] | TGI (SNB-75 CNS) [µM] | TGI (MOLT-4 leukemia) [µM] | TGI (RPMI-8226 leukemia) [µM] | TGI (786-0 renal) [µM] | TGI (DU-145 prostate) [µM] | TGI (UACC-257 melanoma) [µM] | TGI (RXF 393 renal) [µM] | GI50 (SF-539 CNS) [µM] | GI50 (HT29 colon) [µM] | GI50 (MOLT-4 leukemia) [µM] | GI50 (DU-145 prostate) [µM] | GI50 (UACC-257 melanoma) [µM] | GI50 (RPMI-8226 leukemia) [µM] | GI50 (RXF 393 renal) [µM] | GI50 (SNB-75 CNS) [µM]
CC(=O)N1N=C(N)CC1=O | > 100 | > 100 | > 100 | > 100 | – | > 100 | > 100 | > 100 | > 100 | – | – | – | – | – | – | – | –
COc1ccc(Cl)cc1NC(=O)c1c(NC(=O)C(F)(F)C(F)(F)F)sc2c1CCCCC2 | – | > 100 | 5.64 | – | 3.21 | – | > 100 | – | 5.28 | – | 2.48 | – | 2.72 | – | 0.523 | 1.73 | 1.49
O=C1/C(=C/c2cccs2)NC(=S)N1CN1CCOCC1 | – | > 100 | > 100 | > 100 | > 100 | > 100 | > 100 | > 100 | – | – | – | – | – | – | – | – | –
CCOC(=O)C1(C(=O)OCC)CC(=O)[C@@]2(C1)OCC[C@H]1OC(=O)C[C@H]12 | > 100 | > 100 | > 100 | > 100 | > 100 | > 100 | > 100 | > 100 | – | – | – | – | – | – | – | – | –
C=Cc1cc2c(cc1O)CC[C@@H]1[C@@H]2CC[C@]2(C)[C@@H](O)CC[C@@H]12 | 5.53 | 29.5 | 24.4 | 14.5 | – | 14.3 | 16.6 | 8.87 | 8.92 | – | – | – | 4.41 | – | – | – | –
CCOCC(NC(=O)C(CC(C)C)NC(=O)OC(C)(C)C)C(N)=O (stereo not drawn) (Boc-Leu-Ser(Et)-NH2; configuration not given here) | > 100 | > 100 | > 100 | > 100 | – | > 100 | > 100 | > 100 | > 100 | – | – | – | – | – | – | – | –
O=c1c(-c2ccccc2Cl)coc2cc(F)ccc12 | 31.6 | > 100 | 54.5 | > 100 | – | > 100 | 83.9 | > 100 | > 100 | – | – | – | – | – | – | – | –
CC(=O)O[C@H]1CC[C@@]2(C)C(=CC[C@@H]3[C@@H]2CC[C@]2(C)c4c(cc(C#N)c(=N)n4C(C)=O)C[C@@H]32)C1 | – | 43.5 | 44.9 | 35.8 | – | 58.3 | 79.3 | 33.9 | 66.5 | – | – | – | – | – | – | – | –
CC1C(c2ccc3c(c2)OCO3)c2cc3c(cc2OC1N1CCCCC1)OCO3 (stereo not given) | > 100 | > 100 | – | > 100 | > 100 | > 100 | > 100 | > 100 | – | – | – | – | – | – | – | – | –
O=c1c(O)c(-c2cc(O)c(O)cc2O)oc2cc(O)c(C3OC(CO)C(O)C(O)C3O)c(O)c12 (stereo not given) | > 100 | > 100 | > 100 | > 100 | > 100 | > 100 | > 100 | > 100 | – | – | – | – | – | – | – | – | –
COc1cc2cc(C(=O)N3CC(CCl)c4c3cc(N(C)C)c3ccccc43)[nH]c2c(OC)c1OC (stereo not given) | 0.0132 | – | 0.0252 | 0.0608 | 0.501 | – | 0.492 | – | 0.0334 | – | – | – | – | – | – | – | –
CN(C)CCNC(=O)c1ccc(NCCCN(C)CCCNc2ccc(C(=O)NCCN(C)C)c3[nH]c4ccc([N+](=O)[O-])cc4c(=O)c23)c2c(=O)c3cc([N+](=O)[O-])ccc3[nH]c12 | – | 1.02 | 1.21 | 0.0623 | 0.151 | 1.14 | 0.641 | 1.62 | 0.351 | – | – | – | – | – | – | – | –
O=C1OC(C2OC(=O)c3cc(O)c(O)c(O)c3-c3c(O)c(O)c4oc(=O)c5c(c(O)c(O)c6oc(=O)c3c4c65)-c3c(cc(O)c(O)c3O)C(=O)OCC2O)C2OC(=O)c3c(c(O)c(O)c(O)c3[C@H]2O)-c2c1cc(O)c(O)c2O (stereo not given in full) | – | 31.6 | 63.7 | 65.3 | 76.9 | 44.9 | > 100 | > 100 | 73.5 | – | – | – | – | – | – | – | –
Cc1ccc(Nc2sc(C)cc2C#N)c([N+](=O)[O-])c1 | > 100 | – | > 100 | > 100 | > 100 | > 100 | > 100 | > 100 | > 100 | – | – | – | – | – | – | – | –
CCOC(=O)COc1c(OC)cc(C2C3=C(COC3=O)Oc3cc4c(cc32)OCO4)cc1OC (stereo not given) | 43 | 8.29 | > 100 | 41.8 | 0.954 | 15.5 | > 29.1 | > 100 | – | – | – | – | – | – | – | – | –
Fc1cc(-c2ncc(Cl)cc2Cl)c2cccccc1-2 | > 100 | > 100 | > 100 | – | – | > 100 | > 100 | > 100 | > 100 | – | – | – | – | – | – | – | –
N#CC(N=Nc1ccccc1)c1nc2ccccc2o1 (stereo not given) | 28.8 | > 100 | – | > 100 | > 100 | 45.5 | 72.4 | > 100 | 61.4 | – | – | – | – | – | – | – | –

Source: PubChem BioAssay (NCI)
